In patent US4647687A, “Halogenated sulphides, process for their preparation and their use in microbicidal agents” (Bayer Aktiengesellschaft, priority 1983, dated 1987):
In brackets after ≈: the same amount, converted by molar mass. Where two headings read alike, the source gives them in different places.

What was measured:
[1] = test system: Staphylococcus aureus; test: Action against bacteria (MIC in broth agar); assay type: cell-based; details: 28° C., 60 to 70% relative humidity, 2 weeks
[2] = test system: Polyporus versicolor; test: MIC against fungi, beerwort/peptone agar
[3] = test system: Trichoderma viride; test: MIC against fungi, beerwort/peptone agar
[4] = test system: Eschercihia coli; test: Action against bacteria (MIC in broth agar); assay type: cell-based; details: Escherichia coli, 28° C., 60 to 70% relative humidity, 2 weeks
[5] = test system: microbes (bacteria, yeasts and moulds) isolated from microbially decayed cooling lubricant use dilutions; test: Testing as a preservative for cooling lubricants; details: 1% active compound in mineral oil cooling lubricant; 5% strength use dilutions contaminated daily for 3 months
Procedure: 1% of the active compound is added, as a preservative, to a cooling lubricant based on mineral oil. 5% strength use dilutions of the cooling lubricant are massively contaminated daily for 3 months with microbes (bacteria, yeasts and moulds) isolated from microbially decayed cooling lubricant use dilutions.

[6] = test system: Sclerophoma pityophila; test: MIC against fungi, beerwort/peptone agar; details: 28° C., 60 to 70% relative humidity, 2 weeks
[7] = test system: Penicillium glaucum; test: MIC against fungi, beerwort/peptone agar; details: 28° C., 60 to 70% relative humidity, 2 weeks
[8] = test system: slime organisms; test: Action against slime organisms (MIC in Allen's nutrient solution); assay type: cell-based; details: 336 h, about 10^6 germs/ml, 3 weeks at room temperature
[9] = test system: Aspergillus niger; test: MIC against fungi, beerwort/peptone agar; details: 28° C., 60 to 70% relative humidity, 2 weeks
[10] = test system: Lentinus tigrinus; test: MIC against fungi, beerwort/peptone agar; details: 28° C., 60 to 70% relative humidity, 2 weeks
[11] = test system: Aureobasidium pullulans; test: MIC against fungi, beerwort/peptone agar
[12] = test system: Coniophora puteana; test: MIC against fungi, beerwort/peptone agar; details: 28° C., 60 to 70% relative humidity, 2 weeks
[13] = test system: Alternaria tenuis; test: MIC against fungi, beerwort/peptone agar; details: 28° C., 60 to 70% relative humidity, 2 weeks
[14] = test system: Chaetomium globosum; test: MIC against fungi, beerwort/peptone agar; details: 28° C., 60 to 70% relative humidity, 2 weeks
[15] = 28° C., 60 to 70% relative humidity, 2 weeks

Q: Which results are given for `N#CC(Cl)=CSC(Cl)=C(Cl)C#N` [Example 5, 1,2-dichloro-2-cyano-vinyl 2-chloro-2-cyano-vinyl sulphide]?
A: MIC ([1]; 336 h, read-out: MIC): 10 µg/mL (≈ 41.8 µM); MIC ([2]; Trametes versicolor, 336 h): 1 µg/mL (≈ 4.18 µM); MIC ([3]; 336 h): 10 µg/mL (≈ 41.8 µM); MIC ([4]; 336 h, read-out: MIC): 20 µg/mL (≈ 83.5 µM); state of the use dilutions at the end of the testing period [5]: free from germs; MIC ([6]; Sydowia polyspora, 336 h): 0.5 µg/mL (≈ 2.09 µM); MIC ([7]; Penicillium, 336 h): 1 µg/mL (≈ 4.18 µM); MIC [8]: 0.35 µg/mL (≈ 1.46 µM); MIC ([9]; 336 h): 2 µg/mL (≈ 8.35 µM); MIC ([10]; 336 h): 0.5 µg/mL (≈ 2.09 µM); MIC ([11]; 336 h): 5 µg/mL (≈ 20.9 µM); MIC ([12]; 336 h): < 0.1 mg/L; MIC ([13]; Alternaria alternata, 336 h): 20 mg/L (≈ 83.5 µM); MIC ([14]; 336 h): 2 µg/mL (≈ 8.35 µM)

Q: With `N#CC(Cl)=C(Cl)SC(Cl)=C(Cl)C#N` [Example 8, bis-(1,2-dichloro-2-cyano-vinyl) sulphide] as the molecule, how does the MIC ([1]; 336 h, read-out: MIC) read?
A: < 20 µg/mL

Q: What about the MIC ([2]; Trametes versicolor, 336 h) of the same molecule?
A: 1 µg/mL (≈ 3.65 µM)

Q: And the MIC ([3]; 336 h)?
A: 10 µg/mL (≈ 36.5 µM)

Q: What about the MIC ([4]; 336 h, read-out: MIC) of the same molecule?
A: 50 µg/mL (≈ 183 µM)

Q: And the MIC ([6]; Sydowia polyspora, 336 h)?
A: 0.5 µg/mL (≈ 1.83 µM)

Q: And the MIC [7]?
A: 1 µg/mL (≈ 3.65 µM)

Q: And the MIC ([9]; 336 h)?
A: 2 µg/mL (≈ 7.3 µM)

Q: And the MIC ([10]; 336 h)?
A: 0.5 µg/mL (≈ 1.83 µM)

Q: What about the MIC ([11]; 336 h) of the same molecule?
A: 1 µg/mL (≈ 3.65 µM)

Q: And the MIC [12]?
A: < 0.1 mg/L

Q: And the MIC [13]?
A: 2 mg/L (≈ 7.3 µM)

Q: And the MIC ([14]; 336 h)?
A: 2 µg/mL (≈ 7.3 µM)

Q: Which results are given for `N#CC(Cl)=CS(=O)(=O)c1ccccc1` [α-Chloro-β-phenylsulphonyl-acrylonitrile, α-Chloro-β-phenylsulphonyl acrylonitrile, reference compound]?
A: MIC ([1]; 336 h, read-out: MIC): 500 µg/mL (≈ 2200 µM); MIC ([4]; 336 h, read-out: MIC): 200 µg/mL (≈ 878 µM); MIC ([7]; Penicillium, 336 h): 35 µg/mL (≈ 154 µM); MIC ([9]; 336 h): 50 µg/mL (≈ 220 µM); MIC ([14]; 336 h): 50 µg/mL (≈ 220 µM)

Q: With `N#CC=C(Cl)SCCC#N` [Example 1, 1-chloro-2-cyanovinyl 2-cyano-ethyl sulphide] as the molecule, how does the MIC [8] read?
A: 0.15 µg/mL (≈ 0.869 µM)

Q: What does the source list for `N#CC(Cl)=C(Cl)SC(Cl)=C(Cl)C#N` [Example 9, bis-(1,2-dichloro-2-cyano-vinyl) sulphide]?
A: MIC [1]: 10 µg/mL (≈ 36.5 µM); MIC ([2]; Polyporus versicolor, 28° C., 60 to 70% relative humidity, 2 weeks): 1 µg/mL (≈ 3.65 µM); MIC [3, 15]: 10 µg/mL (≈ 36.5 µM); MIC [4]: 25 µg/mL (≈ 91.3 µM); MIC [6]: 0.75 µg/mL (≈ 2.74 µM); MIC [7]: 2.5 µg/mL (≈ 9.13 µM); MIC [9]: 2.5 µg/mL (≈ 9.13 µM); MIC [10]: 1 µg/mL (≈ 3.65 µM); MIC [11, 15]: 1 µg/mL (≈ 3.65 µM); MIC [12]: 0.5 mg/L (≈ 1.83 µM); MIC [13]: 0.75 mg/L (≈ 2.74 µM); MIC [14]: 2.5 µg/mL (≈ 9.13 µM)

Q: For `N#CCCSC(Cl)=C(Cl)C#N` [Example 2, 1,2-dichloro-2-cyano-vinyl 2-cyano-ethyl sulphide], which MIC ([1]; 336 h, read-out: MIC) is on record?
A: 35 µg/mL (≈ 169 µM)

Q: What about the MIC ([4]; 336 h, read-out: MIC) of the same molecule?
A: 200 µg/mL (≈ 966 µM)

Q: And the MIC ([6]; Sydowia polyspora, 336 h)?
A: 20 µg/mL (≈ 96.6 µM)

Q: And the MIC [8]?
A: 2 µg/mL (≈ 9.66 µM)

Q: And the MIC ([9]; 336 h)?
A: < 20 µg/mL

Q: What about the MIC ([14]; 336 h) of the same molecule?
A: < 20 µg/mL
